Target: T1, His6-TTD (UHRF1 tandem Tudor domain) vs. H3K9me3 peptide (Homo sapiens, UniProt Q96T88)
T1 construct: Using the isolated His6-TTD (aa 123–283) we performed a thermal shift assay; made in house; host or cells: Rosetta (DE3) E. coli, pMCSG7
T1 sequence (Q96T88 123-283): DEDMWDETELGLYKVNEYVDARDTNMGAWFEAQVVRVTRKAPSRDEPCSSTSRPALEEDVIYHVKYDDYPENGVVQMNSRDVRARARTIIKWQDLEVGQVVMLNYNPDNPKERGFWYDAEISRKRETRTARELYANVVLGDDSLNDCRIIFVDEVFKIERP
Assay: TR-FRET assay: His6-TTD interaction with H3K9me3 peptide
Assay type: biochemical
Conditions: protein treated with PKA and ATP 1 h at 30 °C
Method: Finally, the fragment library was screened using a TR-FRET assay to find inhibitors that block the interaction of His6-TTD with H3K9me3 peptide. In this assay, an anti-His6-antibody labeled with Tb cryptate binds to His6-TTD while a streptavidin-d2 acceptor binds to a biotinylated histone H3K9me3 peptide. The binding between His6-TTD and H3K9me3 peptide was measured by the ratio of 665 nm fluorescence (from the d2 acceptor) to 620 nm fluorescence (from the Tb cryptate donor) (Fig. 1D).
The fragment screen was carried out on low volume 384-well white plates (Corning 4512) and the assay was performed at room temperature. […] After 1 h of incubation, the fluorescent signals at 665 nm and 620 nm of each plate were measured by the Tecan Infinite M1000 plate reader (excitation 340 nm, 60 µs lag time, and 500 µs integration time) and the TR-FRET signal was calculated by the ratio of 665 nm/620 nm fluorescent signal. For the fragment screen, on seven of the library plates there were 32-wells of DMSO control, while there were 8-wells of DMSO control in the last plate. […] The only difference was that the final concentration of His6-TTD-PHD was 200 nM, biotin-H3K9me3 peptide was 200 nM for the His6-TTD-PHD TR-FRET assay, while the final concentration of His6-UHRF1-FL was 200 nM and biotin-H3K9me3 peptide was 100 nM for the His6-UHRF1-FL TR-FRET assay. The buffer pH was 7.5 for the His6-TTD-PHD and His6-UHRF1-FL assays.

Compound: Cc1ccnc(C)c1 [2,4-lutidine]
- effect of PKA treatment of His6-TTD on inhibition of H3K9me3 peptide binding (in words): no effect
